Patent publication US20250205256A1 (GH RESEARCH IRELAND LIMITED, priority 2022, published 2025)

Assay: Pharmacokinetics after single inhaled dose of 5-MeO-DMT (LC-MS/MS)
Type: in vivo, human
Parameters: blood concentration relative to LLOQ: dose or concentration left out as unconfirmed
Settings: metabolite after inhaled 5-MeO-DMT
Experimental: Blood samples were obtained at 1; 2; 4; 7; 10; 15; 20; 30; 45 min and 1; 1.5; 2; 3; 4 hours after administration.
PK parameters were generated by algebraic analysis of the concentration versus time plots for each individual. The analysis was carried out using the software Phoenix WinNonlin 6.3.

## CN(C)CCc1c[nH]c2ccc(O)cc12 [bufotenine]
  blood concentration observations with uptitration scheme: Substantially similar observations
  blood concentration relative to LLOQ: Only in few samples, concentrations were above the lower level of quantification
